Laboratory results reported in patent US4874898A, “Novel substituted anthrasteroid derivatives” (Shionogi and Co., Ltd. Patent Department, priority 1987, dated 1989).

Tests used:
seminal vesicles [1] = experiment: Assay for Antiandrogenic Activity (Subcutaneous administration), seminal vesicle weight; format: in vivo, SD-JCL male rats (castrated); conditions: for I. R. (%) A* (Inhibition rate, seminal vesicle) / Weight (Mean mg ± S.E.) A* (seminal vesicle): 7 days; for I. R. (%) A* (Inhibition rate, seminal vesicle): with testosterone propionate 0.02 mg/day, Table 1-1; for Weight (Mean mg ± S.E.) A* (seminal vesicle) / I. R. (%) A* (seminal vesicle): Table 1-2
Procedure: (§1) Assay for Antiandrogenic Activity (Subcutaneous administration)
(§2) The three week-old SD-JCL male rats were castrated and the drug treatment was started from three days after the castration. The rats were divided into groups; one group consists of six rats. One group was intact with any drug, the 2nd group was treated subcutaneously with a solution or suspension of 0.02 mg of testosterone propionate in sesame oil a day, and the other groups was treated with 0.1 to 3 mg of the test compound and 0.02 mg of testosterone propionate in sesame oil a day. This treatment was carried out for 7 days, successively. The rats were killed next day of the last treatment and the seminal vesicles and ventral prostates were taken out and weighed. Antiandrogenic activity of the test compounds were estimated as […] of seminal vesicles and ventral prostates induced by testosterone propionate.

ventral prostates [2] = experiment: Assay for Antiandrogenic Activity (Subcutaneous administration), ventral prostate weight; format: in vivo, SD-JCL male rats (castrated); conditions: for I. R. (%) B* (Inhibition rate, prostate) / Weight (Mean mg ± S.E.) B* (prostate): 7 days; for I. R. (%) B* (Inhibition rate, prostate): with testosterone propionate 0.02 mg/day, Table 1-1; for Weight (Mean mg ± S.E.) B* (prostate) / I. R. (%) B* (prostate): Table 1-2
Procedure: as §1, §2

seminal vesicles [3] = experiment: Assay for Antiandrogenic Activity (Oral Administration), seminal vesicle weight; format: in vivo, SD-JCL male rats (castrated); conditions: 3 mg orally, 7 days, with testosterone propionate 0.02 mg/day s.c.; Table 2
Procedure: (§3) Assay for Antiandrogenic Activity (Oral Administration)
(§4) The three week-old SD-JCL male rats were castrated and the drug treatment was started from three days after the castration. The rats were divided into groups; one group consists of six rats. One group was treated with 0.02 mg of testosterone propionate in sesame oil a day by injecting subcutaneously and the other groups were treated with 0.02 mg of testosterone propionate and simultaneously treated orally with a suspension of 3 mg of the test compound in sesame oil. The castrated control group was treated with sesame oil. This treatment was continued for 7 days, successively. The rats were killed 24 hours after the last treatment and the seminal vesicles and ventral prostates were taken out and weighed.

ventral prostates [4] = experiment: Assay for Antiandrogenic Activity (Oral Administration), ventral prostate weight; format: in vivo, SD-JCL male rats (castrated); conditions: 3 mg orally, 7 days, with testosterone propionate 0.02 mg/day s.c.; Table 2
Procedure: as §3, §4

[5] = system: Shionogi-carcinoma 115 (SC-115); experiment: Assay for growth inhibitory activity against androgen-dependent tumor (Shionogi-carcinoma 115); format: in vivo, mice (castrated); conditions: 14 days
From the text: The followings show an assay for antiandrogenic activity against androgen-dependent tumor, Shionogi-carcinoma 115 (SC-115). The SC-115 is a tumor cell which grows in the presence of an androgen and its hormone dependency is widely known as a prostatic cancer model. Therefore, the androgenic activity is also estimated by examining the growth inhibition effect against this tumor.
Assay for growth inhibitory activity against androgen-dependent tumor (Shionogi-carcinoma 115)
The six week-old mice were castrated and […] of Shionogi-carcinoma tumor pieces was grafted into the back subcutaneously on the fifth day from the castration. The grafted mice were divided into groups, each consisting of seven mice, and the drug treatment was started immediately after the graft. One group was intact with any drug, and the 2nd group was treated subcutaneously with 0.1 mg of testosterone propionate a day. The other groups were treated subcutaneously with a suspension of 0.1 mg of testosterone propionate and 0.1 to 2.0 mg per day of test compounds a day as a conventional steroid solution. This treatment was carried out for 14 days, successively. The mice were killed next day of the last treatment and the tumor was taken out to weigh.

[6] = 0.1 mg/day s.c., with testosterone propionate 0.1 mg/day
[7] = 0.5 mg/day s.c., with testosterone propionate 0.1 mg/day
[8] = 2.0 mg/day s.c., with testosterone propionate 0.1 mg/day
[9] = testosterone propionate alone, 0.02 mg/day s.c.
[10] = 0.1 mg/day s.c., with testosterone propionate
[11] = 0.3 mg/day s.c., with testosterone propionate
[12] = 1 mg/day s.c., with testosterone propionate
[13] = 3 mg/day s.c., with testosterone propionate

Compound: CC1C2=CC(=O)CCC2CC2C1CCC1(C)C(O)CCC21 (stereo not shown)
- I. R. (%) A* (Inhibition rate, seminal vesicle) (seminal vesicles [1]; 1 mg/day s.c.): 25%

Compound: CC1=C2C=CC3(C)C(O)CCC3C2CC2CCC(=O)C=C12 (stereo not shown)
- I. R. (%) B* (Inhibition rate, prostate) (ventral prostates [2]; 1 mg/day s.c.): 44%
- I. R. (%) A* (Inhibition rate, seminal vesicle) (seminal vesicles [1]; 1 mg/day s.c.): 69%

Compound: CC1=C2CCC3(C)C(=O)CCC3C2CC2CCC(=O)C=C12 (stereo not shown)
- I. R. (%) B* (Inhibition rate, prostate) (ventral prostates [2]; 1 mg/day s.c.): 42%
- I. R. (%) A* (Inhibition rate, seminal vesicle) (seminal vesicles [1]; 1 mg/day s.c.): 57%

Compound: CCC(=O)OC1CCC2C3CC4CCC(=O)C=C4C(C)=C3CCC12C (stereo not shown)
- I. R. (%) B* (Inhibition rate, prostate) (ventral prostates [2]; 1 mg/day s.c.): 50%
- I. R. (%) A* (Inhibition rate, seminal vesicle) (seminal vesicles [1]; 1 mg/day s.c.): 74%

Compound: CC1=C2CCC3(C)C(CCC3(C)O)C2CC2CCC(=O)C=C12 (stereo not shown)
- I. R. (%) B* (Inhibition rate, prostate) (ventral prostates [2]; 1 mg/day s.c.): 41%
- I. R. (%) A* (Inhibition rate, seminal vesicle) (seminal vesicles [1]; 1 mg/day s.c.): 67%

Compound: CC1=C2CCC3(C)C(O)C(F)CC3C2CC2CCC(=O)C=C12 (stereo not shown)
- I. R. (%) B* (Inhibition rate, prostate) (ventral prostates [2]; 1 mg/day s.c.): 52%
- I. R. (%) A* (Inhibition rate, seminal vesicle) (seminal vesicles [1]; 1 mg/day s.c.): 77%

Compound: CC1=C2CCC3(C)C(OC4=CCCCCCC4)CCC3C2CC2CCC(=O)C=C12 (stereo not shown)
- I. R. (%) A* (seminal vesicle) (seminal vesicles [3]): 39%
- I. R. (%) B* (prostate) (ventral prostates [4]): 34%

Compound: CC1=C2CC3(CCC2CC2C1=CCC1(C)C(=O)CCC21)OCCO3 (stereo not shown)
- I. R. (%) A* (seminal vesicle) (seminal vesicles [3]): 26%
- I. R. (%) B* (prostate) (ventral prostates [4]): 25%

Compound: CC1=C2CCC3(C)C(O)C(CBr)CC3C2CC2CCC(=O)C=C12 (stereo not shown)
- I. R. (%) A* (seminal vesicle) (seminal vesicles [3]): 51%
- I. R. (%) B* (prostate) (ventral prostates [4]): 43%

Compound: CC1=C2CCC3(C)C(O)C(Br)CC3C2CC2CCC(=O)C=C12 (stereo not shown)
- Inhibition Rate (%) of tumor weight [5, 6]: 11%
- Tumor Weight (Mean mg ± S.E.) [5, 6]: 2871 ± 277 mg
- Inhibition Rate (%) of tumor weight [5, 7]: 40%
- Tumor Weight (Mean mg ± S.E.) [5, 7]: 1950 ± 144 mg
- Inhibition Rate (%) of tumor weight [5, 8]: 69%
- Tumor Weight (Mean mg ± S.E.) [5, 8]: 1004 mg

Compound: CCC(=O)O[C@H]1CC[C@H]2[C@@H]3CCC4=CC(=O)CC[C@]4(C)[C@H]3CC[C@]12C [Testosterone propionate, testosterone propionate, reference compound]
- Tumor Weight (Mean mg ± S.E.) ([5]; testosterone propionate alone, 0.1 mg/day s.c.): 3241 ± 456 mg
- Weight (Mean mg ± S.E.) B* (prostate) (ventral prostates [2]; [9]): 40.1 ± 1.3 mg
- Weight (Mean mg ± S.E.) A* (seminal vesicle) (seminal vesicles [1]; [9]): 26.1 ± 0.8 mg

Compound: CC1=C2CCC3(C)C(O)CCC3C2CC2CCC(=O)C=C12 (stereo not shown) [drawing 52]
- Weight (Mean mg ± S.E.) B* (prostate) (ventral prostates [2]; [10]): 37.9 ± 3.0 mg
- Weight (Mean mg ± S.E.) B* (prostate) (ventral prostates [2]; [11]): 37.3 ± 3.0 mg
- Weight (Mean mg ± S.E.) B* (prostate) (ventral prostates [2]; [12]): 27.5 ± 2.2 mg
- I. R. (%) B* (prostate) (ventral prostates [2]; [12]): 43%
- Weight (Mean mg ± S.E.) B* (prostate) (ventral prostates [2]; [13]): 23.8 ± 1.6 mg
- I. R. (%) B* (prostate) (ventral prostates [2]; [13]): 55%
- Weight (Mean mg ± S.E.) A* (seminal vesicle) (seminal vesicles [1]; [10]): 19.9 ± 0.6 mg
- I. R. (%) A* (seminal vesicle) (seminal vesicles [1]; [10]): 31%
- Weight (Mean mg ± S.E.) A* (seminal vesicle) (seminal vesicles [1]; [11]): 20.7 ± 1.3 mg
- I. R. (%) A* (seminal vesicle) (seminal vesicles [1]; [11]): 27%
- Weight (Mean mg ± S.E.) A* (seminal vesicle) (seminal vesicles [1]; [12]): 15.0 ± 0.7 mg
- I. R. (%) A* (seminal vesicle) (seminal vesicles [1]; [12]): 56%
- Weight (Mean mg ± S.E.) A* (seminal vesicle) (seminal vesicles [1]; [13]): 11.4 ± 0.8 mg
- I. R. (%) A* (seminal vesicle) (seminal vesicles [1]; [13]): 74%

Compound: CC1=C2CCC3(C)C(O)CCC3C2CC2CCC(=O)C=C12 (stereo not shown) [drawing 56]
- Inhibition Rate (%) of tumor weight [5, 6]: 48%
- Tumor Weight (Mean mg ± S.E.) [5, 6]: 1682 ± 177 mg
- Inhibition Rate (%) of tumor weight [5, 7]: 59%
- Tumor Weight (Mean mg ± S.E.) [5, 7]: 1343 ± 283 mg
- Inhibition Rate (%) of tumor weight [5, 8]: 92%
- Tumor Weight (Mean mg ± S.E.) [5, 8]: 255 mg
